The source of these data is patent US20240400604A1, “NUCLEOSIDE TRIPHOSPHATE PHOTOAFFINITY PROBE, METHOD FOR PREPARING SAME, AND APPLICATIONS THEREOF” (SHANDONG UNIVERSITY, priority 2023, published 2024).

In test [1] the test system is ATP-binding proteins in HEK 293T cell lysates. The test can be described thus: In-gel fluorescence imaging of HEK 293T cell lysates labeled with the ATP-N probe. Conditions: FIG. 23a, in-gel fluorescence.
The test system is the same in test [2]. The test can be described thus: Proteomic LC-MS/MS (LFQ) analysis of HEK 293T cell lysates labeled with the ATP-N probe, ATP competition. Also on record: species or system human. On the procedure: (§1) 1 mg of cell lysate was labeled with 10 μM ATP-N probe. The subsequent steps were the same as in Section 1.3 of Example 3.
(§2) The C18 pre-column (Thermo Fisher, 164564-CMD, 100 μm×2 cm) and analytical column (Thermo Fisher, 164941, 75 μm×25 cm) used in the LC-MS/MS analysis were commercially available. The liquid chromatography (Vanquish Neo, Thermo Fisher) settings were as follows: Solvent A was 98% H2O with 0.1% FA, and Solvent B was 98% ACN with 0.1% FA. The flow rate was 300 nL/min, with the elution gradient as follows: 0 minutes, 2% B; 5 minutes, 26% B; 127 minutes, 36% B; 137 minutes, 72% B; 142 minutes, 80% B; and 143-153 minutes, 80% B. The mass spectrometer (Orbitrap Exploris 480, Thermo Fisher) settings were: full MS scan in positive ion mode, electrospray ion source voltage 1.9 kV, ion transfer tube temperature 320° C., scan m/z range 350-1500, resolution of 120000, AGC target 300%, maximum injection time 25 ms. For dd-MS^2, resolution was 15000, AGC target 50%, maximum injection time was automatically selected, and the cycle time for MS scanning was set to 3 s. DDA mode was used for data acquisition and the data collection time was 0-142 minutes.
The obtained MS raw files were analyzed using Proteome Discoverer 2.5 software, and searched against the Uniprot human protein database (as of November 2022, total proteins: 20401). Enzyme specificity was set to trypsin, cysteine carbamidomethylation was set as a fixed modification, and methionine oxidation and N-terminal acetylation were set as variable modifications.
HEK 293T cell lysates were labeled with 10 μM ATP-N probe. Labeled proteins were enriched with streptavidin beads, and digested with trypsin to prepare peptide samples for LC-MS/MS analysis. Adding 100 μM ATP as the competitor during probe labeling, the labeling of ATP-binding proteins would be interfered. Compared with the probe-labeling group without competitors, more specific ATP-binding proteins could be identified with label-free quantitative (LFQ) analysis.

Test [3] concerns the target T1, N-acetylglucosamine kinase (NAGK) (Homo sapiens, UniProt Q9UJ70).
T1 construct: in the samples of HEK 293T cell lysates labeled with the ATP-N probe; endogenous in cells; host or cells: HEK 293T cell lysate
The test is described as follows: Identification of ATP-N probe-modified site by LC-MS/MS. Conditions: near ATP-binding pocket, FIG. 26a. On the procedure:
as §1, §2
(§3) The obtained MS raw files were analyzed using Proteome Discoverer 2.5 software, and searched against the Uniprot human protein database (as of November 2022, total proteins: 20401). […]

Another test deals with T2, VRK1 (Homo sapiens, UniProt Q99986).
T2 construct: in the samples of HEK 293T cell lysates labeled with the ATP-N probe; endogenous in cells; host or cells: HEK 293T cell lysate
T2 sequence (Q99986 1-396): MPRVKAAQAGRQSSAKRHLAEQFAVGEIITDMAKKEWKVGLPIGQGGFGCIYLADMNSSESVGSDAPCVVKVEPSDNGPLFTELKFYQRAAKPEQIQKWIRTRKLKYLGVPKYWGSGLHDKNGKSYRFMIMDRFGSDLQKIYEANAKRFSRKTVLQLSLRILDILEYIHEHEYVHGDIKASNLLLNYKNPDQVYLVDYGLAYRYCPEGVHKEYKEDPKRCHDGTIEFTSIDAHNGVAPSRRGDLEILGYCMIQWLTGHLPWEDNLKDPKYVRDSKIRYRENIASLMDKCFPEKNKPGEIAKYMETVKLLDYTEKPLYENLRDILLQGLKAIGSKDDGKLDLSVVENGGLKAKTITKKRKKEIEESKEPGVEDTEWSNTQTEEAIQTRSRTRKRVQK
The description is as above. Conditions: close to ATP-binding pocket, FIG. 26b. Here is the method:
as §1, §2, §3

In test [4] the test system is ATP-binding proteins, including kinases. The test can be described thus: Staurosporine competitive ATP-N probe labeling of cell lysates, LC-MS/MS. Also on record: species or system human. The settings on record: staurosporine at 1×, 10×, 20× concentration of the ATP-N probe; one biological replicate. Here is the method:
The preparation of mass spectrometry samples was the same as in Section 1.3 of Example 7, except that ATP was replaced with different concentrations of staurosporine.
Prior to probe labeling, cell lysates were pre-incubated on ice with staurosporine at 1×, 10×, and 20× concentration of the ATP-N probe, and compared with the control group without staurosporine treatment. Potential target proteins of kinase inhibitors were screened based on the abundance ratio between the competition group and the control group through LC-MS/MS analysis. Theoretically, as the concentration of the inhibitor increases, the labeling efficiency of its target proteins should gradually decrease. Therefore, proteins were screened based on their abundance ratios ([…]), identifying proteins whose detected abundance decreased with increasing inhibitor concentrations. Proteins with lower confidence were filtered out, leaving proteins that met the criteria for further analysis. Most proteins with reduced labeling efficiency after staurosporine treatment were ATP-binding proteins, including kinases, and this trend increased with higher inhibitor concentrations. […] Since the data presented in this example represent only one biological replicate, there may be some errors. Typically, using the average values and p-values from three biological replicates would yield more reliable results.

The mark [5] stands for this setting: GO-MF analysis of screened proteins.

T1 sequence (Q9UJ70 whole entry): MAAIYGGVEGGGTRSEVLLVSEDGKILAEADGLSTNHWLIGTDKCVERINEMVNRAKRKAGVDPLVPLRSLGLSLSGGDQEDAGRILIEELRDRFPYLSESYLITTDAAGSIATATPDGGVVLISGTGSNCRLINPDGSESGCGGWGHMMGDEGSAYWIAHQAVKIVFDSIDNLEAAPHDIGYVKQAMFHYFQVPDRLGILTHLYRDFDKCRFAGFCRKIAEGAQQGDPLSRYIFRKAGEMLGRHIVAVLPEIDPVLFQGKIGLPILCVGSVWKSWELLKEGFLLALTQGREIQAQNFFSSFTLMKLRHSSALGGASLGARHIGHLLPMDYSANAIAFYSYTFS

Consider `C#CCCC1(CCNP(=O)(O)OP(=O)(O)OP(=O)(O)OC[C@H]2O[C@@H](n3cnc4c(N)ncnc43)C(O)[C@H]2O)N=N1` (stereo partly drawn) [ATP-N probe], for which the “lowest probe concentration showing clear fluorescent bands” value in test [1] came out at 1 µM. The “proteins with significantly decreased intensity in the ATP competition group” value in test [2] (10 μM probe, 100 μM ATP, all three replicates, ratio>2, p-value<0.05) is “More than 160”. For the same compound, in test [2] (setting [5]), the “of these, kinases” value is “around 78”; the “of these, previously annotated ATP-binding proteins” value is “approximately 129”; the “share of annotated ATP-binding proteins among all screened proteins” value is “over 80%”. Moreover, the “proteins with significantly decreased intensity in the competition group, probe-modified peptides” value in test [2] (quantitative analysis of probe-modified peptides, all three replicates, ratio>2, p-value<0.05) was “About 44”. Moreover, the probe-modified residue entry in test [3] is on record as “Glu16”. Also, the probe-labeled residue entry at VRK1 is “Glu73”.

As to `CN[C@@H]1C[C@H]2O[C@@](C)([C@@H]1OC)n1c3ccccc3c3c4c(c5c6ccccc6n2c5c31)C(=O)NC4` [staurosporine, Staurosporine], in test [4], the “proteins with significantly reduced ATP-N probe labeling in the competition group” value is “several known staurosporine targets were identified”.
